Source: patent US10654837B2, “Sulphamoylaryl derivatives and use thereof as medicaments for the treatment of liver fibrosis” (Janssen Pharmaceutica NV, priority 2017, dated 2020)

Target: T1, 5HTR2B (Homo sapiens, UniProt P41595)
T1 construct: host or cells: human Maverick/293 cells
Experiment: 5HTR2B antagonist activity, calcium mobilization assay in human Maverick/293 cells (serotonin as agonist)
Format: cell-based
Details: intracellular calcium, emission 525 nm, read-out: Ca assay IC50
Protocol: The 5HTR2B antagonist activity was measured using human Maverick/293 cells in a calcium mobilization assay. The measurement starting with plating human Maverick/293 cells (log phase) onto 96-well black and incubate at 37° C. overnight, Followed by starving cells for 2 h by changing complete medium to DMEM without FBS, removing the medium from the 96-well plate. Loading staining calcium buffer into each well and incubated the plate at 37° C. for 50 min. After removal of staining calcium buffer, diluted antagonist were added into the well, incubate 15 to 30 minutes. Dispense serotonin as the 5HTR2B agonists into each well. Intracellular calcium concentration is recorded for 80 seconds by monitoring an emission at a wavelength of 525 nm with an excitation wavelength of 485 nm. Inhibition efficiency of the cell line was determined following the equation: % Inhibition=100%−(D−B)/(S−B)*100%. (S: The peak value in the presence of agonist serotonin; D: The peak value in the presence of different dilution compound or serotonin; B: The peak value in the presence of calcium HBSS buffer only). […] A dose response curve was fitted using nonlinear regression model with a sigmoidal dose response. The IC50 was automatically produced by GraphPad Prism 5.0.

T1 sequence (P41595 whole entry): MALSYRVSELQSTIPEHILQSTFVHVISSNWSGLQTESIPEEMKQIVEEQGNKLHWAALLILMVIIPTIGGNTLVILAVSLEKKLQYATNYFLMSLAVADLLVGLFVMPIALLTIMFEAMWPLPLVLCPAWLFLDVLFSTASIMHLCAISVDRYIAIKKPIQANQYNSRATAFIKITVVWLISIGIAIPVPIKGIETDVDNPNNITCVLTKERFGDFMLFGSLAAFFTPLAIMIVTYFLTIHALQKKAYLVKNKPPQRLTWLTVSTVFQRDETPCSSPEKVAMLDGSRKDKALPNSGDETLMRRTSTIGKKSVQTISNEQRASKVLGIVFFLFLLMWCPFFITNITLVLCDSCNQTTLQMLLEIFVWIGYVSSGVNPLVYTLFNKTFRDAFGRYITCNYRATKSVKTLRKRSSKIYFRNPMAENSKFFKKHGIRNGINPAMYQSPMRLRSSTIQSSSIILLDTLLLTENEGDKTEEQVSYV

| SMILES | IC50 |
| --- | --- |
| COc1ccc(S(=O)(=O)N[C@H]2CCOC2)cc1C(=O)Nc1ccc(F)cc1C [Compound 131, (S)—N-(4-Fluoro-2-methylphenyl)-2-methoxy-5-(N-(tetrahydrofuran-3-yl)sulfamoyl)benzamide] | 1.3 nM |
| COc1ccc(S(=O)(=O)N[C@H]2CCNC2)cc1C(=O)Nc1ccccc1Cl [Compound 179, (S)—N-(2-Chlorophenyl)-2-methoxy-5-(N-(pyrrolidin-3-yl)sulfamoyl)benzamide] | 0.1 nM |
| COc1ccc(S(=O)(=O)NC2CC2)cc1C(=O)Nc1ccc(F)cc1 [Compound 48, 5-(N-Cyclopropylsulfamoyl)-N-(4-fluorophenyl)-2-methoxybenzamide] | 2.7 nM |
| COc1ccc(S(=O)(=O)NC2CCC[C@H]2O)cc1C(=O)Nc1ccccc1Cl (stereo partly drawn) [Compound 61c, N-(2-chlorophenyl)-5-(N-((trans)-2-hydroxycyclopentyl)sulfamoyl)-2-methoxy benzamide] | 0.2 nM |
| CCNS(=O)(=O)c1ccc(OC)c(C(=O)Nc2ccc(F)c(C)n2)c1 [Compound 26, 5-(N-Ethylsulfamoyl)-N-(5-fluoro-6-methylpyridin-2-yl)-2-methoxybenzamide] | 1.3 nM |
| COCCOC[C@@H](C)NS(=O)(=O)c1ccc(OC)c(C(=O)Nc2ccc(F)cc2F)c1 [Compound 147b, (R)—N-(2,4-Difluorophenyl)-2-methoxy-5-(N-(1-(2-methoxyethoxy)propan-2-yl)sulfamoyl)benzamide] | 2.1 nM |
| COc1cc(F)c(S(=O)(=O)N[C@H]2CCOC2)cc1C(=O)Nc1ccc(F)c(C)c1 [Compound 201, (S)-4-fluoro-N-(4-fluoro-3-methylphenyl)-2-methoxy-5-(N-(tetrahydrofuran-3-yl)sulfamoyl)benzamide] | 8.6 nM |
| CCCOc1ccc(S(=O)(=O)N[C@H]2CCOC2)cc1C(=O)Nc1ccc(F)c(C)n1 [Compound 199, (S)—N-(5-fluoro-6-methylpyridin-2-yl)-2-propoxy-5-(N-(tetrahydrofuran-3-yl)sulfamoyl) benzamide] | 3.7 nM |
| COc1ccc(S(=O)(=O)NC2CC2)cc1C(=O)Nc1ccc(F)c(C)n1 [Compound 21, 5-(N-Cyclopropylsulfamoyl)-N-(5-fluoro-6-methylpyridin-2-yl)-2-methoxy benzamide] | 1.6 nM |
| COc1ccc(S(=O)(=O)N[C@H]2CCOC2)cc1C(=O)Nc1ccc(F)cc1 [Compound 122, (S)—N-(4-Fluorophenyl)-2-methoxy-5-(N-(tetrahydrofuran-3-yl)sulfamoyl) benzamide] | 0.6 nM |
| COc1ccc(S(=O)(=O)N[C@H]2CCOC2)cc1C(=O)Nc1cc(F)cc(Cl)c1 [Compound 68, (S)—N-(3-Chloro-5-fluorophenyl)-2-methoxy-5-(N-(tetrahydrofuran-3-yl)sulfamoyl)benzamide] | 2.9 nM |
| COc1ccc(S(=O)(=O)NC2CN(C)C2)cc1C(=O)Nc1ccc(F)c(C)n1 [Compound 170, N-(5-Fluoro-6-methylpyridin-2-yl)-2-methoxy-5-(N-(1-methylazetidin-3-yl)sulfamoyl)benzamide] | 58 nM |
| COc1ccc(S(=O)(=O)N[C@H]2CCOC2)cc1C(=O)Nc1c(F)ccc(Cl)c1F [Compound 93, (S)—N-(3-Chloro-2,6-difluorophenyl)-2-methoxy-5-(N-(tetrahydrofuran-3-yl)sulfamoyl)benzamide] | 1060 nM |
| COc1ccc(S(=O)(=O)NC2(C(F)(F)F)CC2)cc1C(=O)Nc1ccc(F)cc1 [Compound 50, N-(4-Fluorophenyl)-2-methoxy-5-(N-(1-(trifluoromethyl)cyclopropyl)sulfamoyl)benzamide] | 7.6 nM |
| COc1ccc(S(=O)(=O)N[C@H]2CCOC2)cc1C(=O)Nc1ccccc1C#N [Compound 164] | 1.1 nM |
| COc1ccc(S(=O)(=O)NC2CCC2)cc1C(=O)Nc1ccc(F)c(C)c1 [Compound 63, 5-(N-Cyclobutylsulfamoyl)-N-(4-fluoro-3-methylphenyl)-2-methoxybenzamide] | 1.3 nM |
| COc1ccc(S(=O)(=O)N[C@H]2CCOC2)cc1C(=O)Nc1ccccc1C(F)(F)F [Compound 149, (S)-2-Methoxy-5-(N-(tetrahydrofuran-3-yl)sulfamoyl)-N-(2-(trifluoromethyl)phenyl)benzamide] | 8.4 nM |
| COCCOC[C@H](C)NS(=O)(=O)c1ccc(OC)c(C(=O)Nc2ccc(F)cc2F)c1 [Compound 147a, (S)—N-(2,4-Difluorophenyl)-2-methoxy-5-(N-(1-(2-methoxyethoxy)propan-2-yl)sulfamoyl)benzamide] | 3.4 nM |
| COc1ccc(S(=O)(=O)N[C@H]2CCOC2)cc1C(=O)Nc1ncc(C)s1 [Compound 84, (S)-2-methoxy-N-(5-methylthiazol-2-yl)-5-(N-(tetrahydrofuran-3-yl)sulfamoyl) benzamide] | 716 nM |
| COc1ccc(S(=O)(=O)N[C@H]2CCOC2)cc1C(=O)Nc1ccc(F)cc1F [Compound 65, (S)—N-(2,4-Difluorophenyl)-2-methoxy-5-(N-(tetrahydrofuran-3-yl)sulfamoyl) benzamide] | 0.34 nM |
| COc1ccc(S(=O)(=O)N[C@H]2CCOC2)cc1C(=O)Nc1cc(F)c(F)cc1F [Compound 74, (S)-2-Methoxy-5-(N-(tetrahydrofuran-3-yl)sulfamoyl)-N-(2,4,5-trifluorophenyl) benzamide] | 0.8 nM |
| COc1ccc(S(=O)(=O)N[C@H]2CC[C@H](O)CC2)cc1C(=O)Nc1ccc(F)c(C)n1 [Compound 18, (trans)-N-(5-Fluoro-6-methylpyridin-2-yl)-5-(N-(−4-hydroxycyclohexyl)sulfamoyl)-2-methoxybenzamid] | 222 nM |
| COc1ccc(S(=O)(=O)N[C@H]2CCNC2)cc1C(=O)Nc1ccc(F)c(C(F)F)c1 [Compound 183, (S)—N-(3-(difluoromethyl)-4-fluorophenyl)-2-methoxy-5-(N-(pyrrolidin-3-yl)sulfamoyl)benzamide] | 0.5 nM |

Further lines, results first:

| IC50 | SMILES |
| --- | --- |
| 1.1 nM | COc1ccc(S(=O)(=O)N[C@H]2CCN(C)C2=O)cc1C(=O)Nc1ccccc1Cl (single isomer, unassigned) [Compound 54a, (S*)—N-(2-Chlorophenyl)-2-methoxy-5-(1-methyl-2-oxopyrrolidin-3-yl) sulfamoyl)benzamide] |
| 2.2 nM | COc1ccc(S(=O)(=O)N[C@H]2C[C@H](O)C2)cc1C(=O)Nc1ccc(F)c(C(F)F)c1 [Compound 142a, N-(3-(difluoromethyl)-4-fluorophenyl)-5-(N-((trans)-3-hydroxycyclobutyl)sulfamoyl)-2-methoxybenzamide] |
| 2.8 nM | COc1ccc(S(=O)(=O)N[C@H]2C[C@@H](O)C2)cc1C(=O)Nc1ccc(F)c(C)n1 [Compound 141] |
| 163 nM | COc1ccc(S(=O)(=O)N[C@H]2CCOC2)cc1C(=O)Nc1ncc(F)cc1C [Compound 132, (S)—N-(5-fluoro-3-methylpyridin-2-yl)-2-methoxy-5-(N-(tetrahydrofuran-3-yl)sulfamoyl)benzamide] |
| 0.4 nM | COc1ccc(S(=O)(=O)N[C@H](C)CC#N)cc1C(=O)Nc1ccccc1Cl (single isomer, unassigned) [Compound 60b, (R*)—N-(2-chlorophenyl)-5-(N-(1-cyanopropan-2-yl)sulfamoyl)-2-methoxy benzamide] |
| 0.8 nM | COc1ccc(S(=O)(=O)N[C@H]2CCNC2)cc1C(=O)Nc1ccc(Cl)cc1F [Compound 185, (S)—N-(4-chloro-2-fluorophenyl)-2-methoxy-5-(N-(pyrrolidin-3-yl)sulfamoyl) benzamide] |
| 1.9 nM | COc1ccc(S(=O)(=O)N[C@H]2C[C@@H](O)C2)cc1C(=O)Nc1ccc(F)c(C)c1 [Compound 6b, N-(4-Fluoro-3-methylphenyl)-5-(N-((cis)-3-hydroxycyclobutyl)sulfamoyl)-2-methoxybenzamide] |
| 6.3 nM | COc1ccc(S(=O)(=O)N[C@H]2CCOC2)cc1C(=O)Nc1cccc(Br)c1 [Compound 124, (S)—N-(3-Bromophenyl)-2-methoxy-5-(N-(tetrahydrofuran-3-yl)sulfamoyl) benzamide] |
| 9.1 nM | COc1ccc(S(=O)(=O)N[C@H]2CCOC2)cc1C(=O)Nc1cc(Cl)c(F)cc1F [Compound 75, (S)—N-(5-Chloro-2,4-difluorophenyl)-2-methoxy-5-(N-(tetrahydrofuran-3-yl)sulfamoyl)benzamide] |
| 1.6 nM | COc1ccc(S(=O)(=O)N[C@@H]2CCNC2)cc1C(=O)Nc1ccc(F)cc1F [Compound 188, (R)—N-(2,4-difluorophenyl)-2-methoxy-5-(N-(pyrrolidin-3-yl)sulfamoyl) benzamide] |
| 0.4 nM | [2H]C([2H])([2H])Oc1ccc(S(=O)(=O)N[C@H]2CCOC2)cc1C(=O)Nc1ccc(F)c(C(F)F)c1 [Compound 192, (S)—N-(3-(Difluoromethyl)-4-fluorophenyl)-2-(methoxy-d3)-5-(N-(tetrahydrofuran-3-yl)sulfamoyl)benzamide] |
| 0.7 nM | COc1ccc(S(=O)(=O)N[C@H]2CCOC2)cc1C(=O)Nc1cccc(C)c1 [Compound 159] |
| 6.9 nM | COc1ccc(S(=O)(=O)N[C@H]2C[C@H](C)C2)cc1C(=O)Nc1ccc(F)c(C)c1 [Compound 7b, N-(4-Fluoro-3-methylphenyl)-2-methoxy-5-(N-((trans)-3-methylcyclobutyl)sulfamoyl)benzamide] |
| 53 nM | COc1ccc(S(=O)(=O)N[C@H]2C[C@@H](O)C2)cc1C(=O)Nc1ccc(F)cn1 [Compound 157, N-(5-Fluoropyridin-2-yl)-5-(N-((cis)-3-hydroxycyclobutyl)sulfamoyl)-2-methoxybenzamide] |
